Here are results for 36 compounds from US8802674B2, “Aminopyrimidine derivatives as LRRK2 modulators” (Genentech, Inc., priority 2011, dated 2014).

This assay has as its target LRRK2 (Homo sapiens (Human), UniProt Q5S007, G2019S). The assay can be described thus: In Vitro LRRK2 LabChip Assay. Format: biochemical. The method, boiled down: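 Potency (Ki in μM, IC50 or % inhibition) derived from capillary-electrophoresis separation of phospho- and unphosphorylated fluorescent peptide, with Ki fitted by a tight-binding model.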

By Ki is commonly meant the equilibrium dissociation constant of an inhibitor or competing ligand from its target. Low readings indicate higher affinity, high ones lower affinity.

Chain of LRRK2 (Q5S007 970-2527 G2019S limits assumed): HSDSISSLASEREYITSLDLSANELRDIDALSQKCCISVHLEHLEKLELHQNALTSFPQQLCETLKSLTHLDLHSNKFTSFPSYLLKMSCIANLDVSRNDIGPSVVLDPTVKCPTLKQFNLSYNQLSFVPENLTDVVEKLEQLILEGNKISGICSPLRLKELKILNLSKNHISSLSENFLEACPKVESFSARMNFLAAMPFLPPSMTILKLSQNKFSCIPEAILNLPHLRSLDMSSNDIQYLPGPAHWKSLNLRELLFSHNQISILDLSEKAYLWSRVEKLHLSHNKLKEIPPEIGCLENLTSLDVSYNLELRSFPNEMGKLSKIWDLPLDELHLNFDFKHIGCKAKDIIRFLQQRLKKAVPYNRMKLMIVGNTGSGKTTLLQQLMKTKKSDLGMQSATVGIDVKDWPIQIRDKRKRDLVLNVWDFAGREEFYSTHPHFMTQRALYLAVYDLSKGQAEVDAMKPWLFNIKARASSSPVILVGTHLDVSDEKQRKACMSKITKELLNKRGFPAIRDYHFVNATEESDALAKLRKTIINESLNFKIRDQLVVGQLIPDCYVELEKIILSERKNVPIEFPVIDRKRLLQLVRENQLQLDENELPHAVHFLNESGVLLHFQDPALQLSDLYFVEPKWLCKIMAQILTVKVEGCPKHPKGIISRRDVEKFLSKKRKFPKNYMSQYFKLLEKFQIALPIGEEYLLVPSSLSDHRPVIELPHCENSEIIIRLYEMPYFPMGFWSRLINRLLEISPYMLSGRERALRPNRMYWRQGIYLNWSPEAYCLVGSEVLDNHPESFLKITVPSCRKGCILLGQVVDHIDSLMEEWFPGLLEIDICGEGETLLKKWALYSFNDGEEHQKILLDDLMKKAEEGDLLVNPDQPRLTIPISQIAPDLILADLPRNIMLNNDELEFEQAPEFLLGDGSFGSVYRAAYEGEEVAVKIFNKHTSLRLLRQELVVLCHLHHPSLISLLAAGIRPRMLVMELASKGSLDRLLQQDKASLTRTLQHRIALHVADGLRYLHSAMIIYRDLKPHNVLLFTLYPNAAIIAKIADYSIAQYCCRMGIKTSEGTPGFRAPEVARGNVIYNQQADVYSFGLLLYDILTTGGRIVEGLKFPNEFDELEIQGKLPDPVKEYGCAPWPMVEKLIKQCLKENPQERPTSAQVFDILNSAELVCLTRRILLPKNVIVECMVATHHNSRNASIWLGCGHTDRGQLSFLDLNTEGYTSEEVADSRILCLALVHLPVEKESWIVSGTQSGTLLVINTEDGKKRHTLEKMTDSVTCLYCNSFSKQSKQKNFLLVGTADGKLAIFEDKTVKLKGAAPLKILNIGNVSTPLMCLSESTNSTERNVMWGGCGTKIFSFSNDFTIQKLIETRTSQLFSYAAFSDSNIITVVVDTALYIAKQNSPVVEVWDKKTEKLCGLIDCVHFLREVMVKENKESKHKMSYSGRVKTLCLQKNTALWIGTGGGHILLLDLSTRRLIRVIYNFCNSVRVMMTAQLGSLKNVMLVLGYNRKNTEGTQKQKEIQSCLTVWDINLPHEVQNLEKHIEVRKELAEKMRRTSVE

Take `CNc1nc(Nc2ccc(C(=O)N3CCCC3)cc2OC)ncc1C(F)(F)F` [Example 274, [3-Methoxy-4-(4-methylamino-5-trifluoromethyl-pyrimidin-2-ylamino)-phenyl]-pyrrolidin-1-yl-methanone]: affinity (Table 6) was put at a Ki of 4.1 nM.

Consider `COc1cc(C(=O)N2CCOCC2)ccc1Nc1ncc(Cl)c(NCC(C)OC)n1` (stereo not drawn) [Example 230, {4-[5-Chloro-4-(2-methoxy-propylamino)-pyrimidin-2-ylamino]-3-methoxy-phenyl}-morpholin-4-yl-methanone], for which, under “Table 4”, the affinity corresponds to a Ki of 9.6 nM.

For `CNc1nc(Nc2cc(OC)c(C(=O)NC3COC3)cc2Cl)ncc1Cl` [Example 153, 5-Chloro-4-(5-chloro-4-methylamino-pyrimidin-2-ylamino)-2-methoxy-N-oxetan-3-yl-benzamide], the Ki (Table 4) stood at 27.4 nM.

On to `CNc1nc(Nc2cc(OC)c(C(=O)N3CCNCC3)cc2Cl)ncc1Cl` [Example 150, [5-Chloro-4-(5-chloro-4-methylamino-pyrimidin-2-ylamino)-2-methoxy-phenyl]-piperazin-1-yl-methanone], for which affinity (Table 4) was put at a Ki of 8.9 nM. Compared with the last compound, the Ki is about 3.1-fold lower.

For the compound `CNc1nc(Nc2ccc(C(=O)N3CCN(C(C)=O)CC3)cc2OC)ncc1Cl` [Example 25, l-{4-[4-(5-Chloro-4-methylamino-pyrimidin-2-ylamino)-3-methoxy-benzoyl]-piperazin-1-yl}-ethanone], under “Table 4”, affinity was put at a Ki of 3.4 nM.

In the case of `CNc1nc(Nc2ccc(C(=O)NCC(F)F)cc2OC)ncc1C#N` [Example 205, 4-(5-Cyano-4-methylamino-pyrimidin-2-ylamino)-N-(2,2-difluoro-ethyl)-3-methoxy-benzamide], where the note is “Table 4”, the affinity, expressed as Ki, was 12.1 nM. This Ki lies about 3.6-fold higher than the previous one.

In the case of `CCNc1nc(Nc2cc(F)c(C(=O)N(CC)CCOC)cc2OC)ncc1C(F)(F)F` [Example 307, N-Ethyl-4-(4-ethylamino-5-trifluoromethyl-pyrimidin-2-ylamino)-2-fluoro-5-methoxy-N-(2-methoxy-ethyl)-benzamide], affinity (Table 6) was put at a Ki of 1.4 nM.

In turn, `CNc1nc(Nc2cc(OC)c(C(=O)NCC(C)(C)O)cc2Cl)ncc1C(F)(F)F` [Example 175, 5-Chloro-N-(2-hydroxy-2-methyl-propyl)-2-methoxy-4-(4-methylamino-5-trifluoromethyl-pyrimidin-2-ylamino)-benzamide] showed a Ki (Table 4) of 7.9 nM.

As to `CCNc1nc(Nc2cc(OC)c(C(=O)N3CCOCC3)cc2Cl)ncc1Cl` [Example 258, [5-Chloro-4-(5-chloro-4-ethylamino-pyrimidin-2-ylamino)-2-methoxy-phenyl]-morpholin-4-yl-methanone], the Ki (Table 5) was determined as 5 nM.

`CNc1nc(Nc2ccc(C(=O)N3CCC(OC)CC3)cc2OC)ncc1Br` [Example 76, [4-(5-Bromo-4-methylamino-pyrimidin-2-ylamino)-3-methoxy-phenyl]-(4-methoxy-piperidin-1-yl)-methanone] displayed a Ki (Table 4) of 2.4 nM. This lies in the single-digit nanomolar range.

`CCNc1nc(Nc2ccc(C(=O)N3CCOCC3)c(F)c2OC)ncc1C(F)(F)F` [Example 241, (4-(4-(ethylamino)-5-(trifluoromethyl)pyrimidin-2-ylamino)-2-fluoro-3-methoxyphenyl) (morpholino)methanone] displayed a Ki (Table 4) of 1.8 nM.

As for `CNc1nc(Nc2ccc(C(=O)N3CCC(OC)CC3)cc2OC)ncc1C(F)(F)F` [Example 280, [3-Methoxy-4-(4-methylamino-5-trifluoromethyl-pyrimidin-2-ylamino)-phenyl]-(4-methoxy-piperidin-1-yl)-methanone], the Ki (Table 6) came out at 1.6 nM.

Turning to `COc1cc(CC(=O)N2CCOCC2)ccc1Nc1ncc(Br)c(OC)n1` [Example 226, 2-[4-(5-Bromo-4-methoxy-pyrimidin-2-ylamino)-3-methoxy-phenyl]-1-morpholin-4-yl-ethanone], the affinity (Table 4) corresponds to a Ki of 5.6 nM.

Compound `COc1cc(C(=O)N2CCOCC2)ccc1Nc1ncc(Cl)c(N2CCCC2)n1` [Example 255, (4-(5-chloro-4-(pyrrolidin-1-yl)pyrimidin-2-ylamino)-3-methoxyphenyl) (morpholino) methanone] displayed a Ki (Table 4) of 17.9 nM.

Compound `CNc1nc(Nc2ccc(C(=O)N3CCOCC3)cc2OC(F)(F)F)ncc1C(F)(F)F` [Example 235, (4-(4-(methylamino)-5-(trifluoromethyl)pyrimidin-2-ylamino)-3-(trifluoromethoxy)phenyl)(morpholino) methanone] registered a Ki (Table 4) of 11.2 nM.

Consider `COc1cc(C(=O)N2CCOCC2)ccc1Nc1ncc(Cl)c(NCCC2CC2)n1` [Example 104, {4-[5-Chloro-4-(2-cyclopropyl-ethylamino)-pyrimidin-2-ylamino]-3-methoxy-phenyl}-morpholin-4-yl-methanone], for which the Ki (Table 4) amounted to 1.8 nM.

Compound `CNc1nc(Nc2ccc(C(=O)N3CCC(O)CC3)cc2OC)ncc1F` [Example 2, [4-(5-Fluoro-4-methylamino-pyrimidin-2-ylamino)-3-methoxy-phenyl]-(4-hydroxy-piperidin-1-yl)-methanone] gave a Ki (Table 4) of 44.6 nM.

In turn, `CNc1nc(Nc2cc(OC)c(C(=O)N3CCC(O)C3)cc2Cl)ncc1Cl` (stereo not drawn) [Example 152, [5-Chloro-4-(5-chloro-4-methylamino-pyrimidin-2-ylamino)-2-methoxy-phenyl]-(3-hydroxy-pyrrolidin-1-yl)-methanone] yielded a Ki (Table 4) of 8.6 nM.

On to `CCN(CC)C(=O)c1ccc(Nc2ncc(C#N)c(NC)n2)c(OC)c1` [Example 199, 4-(5-Cyano-4-methylamino-pyrimidin-2-ylamino)-N,N-diethyl-3-methoxy-benzamide], for which the affinity (Table 4) corresponds to a Ki of 6.8 nM.

For `CNc1nc(Nc2ccc(C(=O)N3CCC(F)(F)C3)cc2OC)ncc1C#N` [Example 208, 2-[4-(3,3-Difluoropyrrolidine-1-carbonyl)-2-methoxy-phenylamino]-4-methylamino-pyrimidine-5-carbonitrile], the affinity (Table 4) corresponds to a Ki of 8.1 nM.

`CNc1nc(Nc2ccc(C(=O)N3CCN(S(C)(=O)=O)CC3)cc2OC)ncc1Cl` [Example 33, [4-(5-Chloro-4-methylamino-pyrimidin-2-ylamino)-3-methoxy-phenyl]-(4-methanesulfonyl-piperazin-1-yl)-methanone] yielded a Ki (Table 4) of 3.6 nM. This Ki lies about 2.2-fold lower than the previous one.

Consider `CNc1nc(Nc2cc(OC)c(C(=O)NC3(C#N)CC3)cc2Cl)ncc1C(F)(F)F` [Example 265, 5-Chloro-N-(1-cyano-cyclopropyl)-2-methoxy-4-(4-methylamino-5-trifluoromethyl-pyrimidin-2-ylamino)-benzamide], for which, under “Table 6”, the affinity corresponds to a Ki of 4.2 nM.

For the compound `COc1cc(C(=O)N2CCOCC2)c(Cl)cc1Nc1ncc(Br)c(OC)n1` [Example 294, [4-(5-Bromo-4-methoxy-pyrimidin-2-ylamino)-2-chloro-5-methoxy-phenyl]-morpholin-4-yl-methanone], where the note is “Table 6”, the Ki amounted to 9.4 nM.

For `CNc1nc(Nc2ccc(C(=O)N3CC4(COC4)C3)cc2OC)ncc1Cl` [Example 190, [4-(5-Chloro-4-methylamino-pyrimidin-2-ylamino)-3-methoxy-phenyl]-(2-oxa-6-aza-spiro[3.3]hept-6-yl)-methanone], the Ki (Table 4) amounted to 6.3 nM.

For the setting “Table 6”, `CCNc1nc(Nc2ccc(C(=O)N3CCOCC3)cc2OC(C)C)ncc1C(F)(F)F` [Example 310, (4-(4-(ethylamino)-5-(trifluoromethyl)pyrimidin-2-yl-amino)-3-isopropoxyphenyl) (morpholino) methanone] returned a Ki of 4.5 nM.

For the compound `COCCNc1nc(Nc2ccc(C(=O)N3CCOCC3)cc2OC)ncc1Br` [Example 229, {4-[5-Bromo-4-(2-methoxy-ethylamino)-pyrimidin-2-ylamino]-3-methoxy-phenyl}-morpholin-4-yl-methanone], the Ki (Table 4) is 4.1 nM. That is a single-digit nanomolar value.

In the case of `CNc1nc(Nc2ccc(C(=O)N3CCOCC3)c(F)c2OC)ncc1C(F)(F)F` [Example 297, [2-Fluoro-3-methoxy-4-(4-methylamino-5-trifluoromethyl-pyrimidin-2-ylamino)-phenyl]-morpholin-4-yl-methanone], under “Table 6”, the Ki was determined as 14.5 nM.

Where the note is “Table 4”, `CNc1nc(Nc2cc(OC)c(C(=O)NCCO)cc2Cl)ncc1Cl` [Example 142, 5-Chloro-4-(5-chloro-4-methylamino-pyrimidin-2-ylamino)-N-(2-hydroxy-ethyl)-2-methoxy-benzamide] yielded a Ki of 11 nM. This counts as double-digit nanomolar.

The compound `CNc1nc(Nc2cc(F)c(C(=O)N(C)C)cc2OC)ncc1C#N` [Example 320, 4-(5-Cyano-4-methylamino-pyrimidin-2-ylamino)-2-fluoro-5-methoxy-N,N-dimethyl-benzamide] yielded a Ki (Table 7) of 62.5 nM.

`CNc1nc(Nc2ccc(C(=O)NC3CC(F)(F)C3)cc2OC)ncc1C#N` [Example 194, 4-(5-Cyano-4-methylamino-pyrimidin-2-ylamino)-N-(3,3-difluoro-cyclobutyl)-3-methoxy-benzamide] displayed a Ki (Table 4) of 6.5 nM.

The compound `COCCOc1nc(Nc2ccc(C(=O)N3CCOCC3)cc2OC2CCC2)ncc1Cl` [Example 187, {4-[5-Chloro-4-(2-methoxy-ethoxy)-pyrimidin-2-ylamino]-3-cyclobutoxy-phenyl}-morpholin-4-yl-methanone] yielded a Ki (Table 4) of 14.3 nM. This Ki lies about 2.2-fold higher than the previous one.

Compound `CNc1nc(Nc2ccc(C(=O)N(C)C(C)C)cc2OC)ncc1C#N` [Example 213, 4-(5-Cyano-4-methylamino-pyrimidin-2-ylamino)-N-isopropyl-3-methoxy-N-methyl-benzamide] returned a Ki (Table 4) of 6.8 nM.

On to `CNc1nc(Nc2cc(OC)c(C(=O)N(C)CCO)cc2Cl)ncc1Cl` [Example 163, 5-Chloro-4-(5-chloro-4-methylamino-pyrimidin-2-ylamino)-N-(2-hydroxy-ethyl)-2-methoxy-N-methyl-benzamide], for which the Ki (Table 4) amounted to 7.8 nM.

`[2H]C1([2H])OCCN(C(=O)c2ccc(Nc3ncc(Br)c(OC)n3)c(OC)c2)[C@@H]1C` [Example 107, [4-(5-Bromo-4-methoxy-pyrimidin-2-ylamino)-3-methoxy-phenyl]-((R)-2,2-di-deutero-3-methyl-morpholin-4-yl)-methanone] yielded a Ki (Table 4) of 2 nM.

Consider `CNc1nc(Nc2cc(OC)c(C(=O)N(C)C)cc2Cl)ncc1Cl` [Example 140, 5-Chloro-4-(5-chloro-4-methylamino-pyrimidin-2-ylamino)-2-methoxy-N,N-dimethyl-benzamide], for which, under “Table 4”, the Ki stood at 11.8 nM.

On to `CNc1nc(Nc2cc(OC)c(CC(=O)N3CCOCC3)cc2OC)ncc1Cl` [Example 221, 2-[4-(5-Chloro-4-methylamino-pyrimidin-2-ylamino)-2,5-dimethoxy-phenyl] 1-morpholin-4-yl-ethanone], for which the Ki (Table 4) amounted to 8.7 nM.
